Assay results from patent US12194140B2, “Compositions for topical treatment of microbial infections” (Hennepin Life Sciences, priority 2012, dated 2025).

Assays:
Streptococcus agalactiae = assay: GML in vegetable oil, growth in Todd Hewitt broth (CFU/mL); assay type: cell-based; settings: GML in olive, palm or corn oil (all 3); 18 hours, 37° C.
Streptococcus pyogenes = assay: Spectrum of antibacterial activity of GML; assay type: cell-based; settings: optimal growth conditions; 4 strains tested
Listeria monocytogenes = assay: Spectrum of antibacterial activity of GML; assay type: cell-based; settings: optimal growth conditions; 1 strain tested
Pseudomonas aeruginosa = assay: Spectrum of antibacterial activity of GML; assay type: cell-based; settings: optimal growth conditions; 1 strain tested
Bacteroides fragilis = assay: Spectrum of antibacterial activity of GML; assay type: cell-based; settings: optimal growth conditions; 2 strains tested
Escherichia coli = assay: Spectrum of antibacterial activity of GML; assay type: cell-based; settings: optimal growth conditions; 2 strains tested
S. aureus = assay: Decolonization of anterior nares; assay type: in vivo, human; settings: 5% w/v GML in non-aqueous gel
Procedure: A study was undertaken to assess the ability of GML (5% w/v), formulated in a non-aqueous gel, to decolonize the respiratory tract in humans, and to decolonize contaminated surgical incision sites in experimental rabbits.
Three human subjects underwent swabs of the anterior nares in order to assess whether GML was capable of decolonizing the respiratory tract. […] The swabs were rotated around each nare up to the nasal bone 3 times. Colony-forming units of microbes from swabs were determined by plate counts on blood agar and mannitol salt agar. The anterior nares were then treated in the same way with swabs that had been dipped one time in GML gel. The anterior nares of each participant were swabbed at designated time periods for up to 24 hours, and swabs were cultured for S. aureus and coagulase-negative staphylococci.

Mycoplasma hominis = assay: Spectrum of antibacterial activity of GML; assay type: cell-based; settings: optimal growth conditions; 1 strain tested
[1] = tested on: Prevotella melaninogenica; assay: Spectrum of antibacterial activity of GML; assay type: cell-based; settings: optimal growth conditions; 1 strain tested
Streptococcus suis = assay: Spectrum of antibacterial activity of GML; assay type: cell-based; settings: optimal growth conditions; 1 strain tested
S. aureus biofilm = assay: Treatment of previously formed biofilms; assay type: cell-based; settings: 48 hour biofilm; 500 μg/mL GML for 60 minutes at 37° C.
[2] = tested on: Bacillus anthracis Sterne; assay type: cell-based; settings: optimal growth conditions; 1 strain tested
Shigella sonnei = assay type: cell-based
S. aureus (strain MN8) = assay: Effect of non-aqueous gel on antimicrobial activity of GML; assay type: cell-based; settings: GML alone in Todd Hewitt broth; 24 hours
[3] = tested on: Haemophilus influenzae Non-typable; assay: Spectrum of antibacterial activity of GML; assay type: cell-based; settings: optimal growth conditions; 2 strains tested
S. aureus strain MN8 = assay: Decolonization of contaminated surgical incision sites; assay type: in vivo, New Zealand white rabbits; settings: GML 5% w/v non-aqueous gel swabbed
[4] = tested on: coagulase-negative staphylococci; assay: Decolonization of anterior nares; assay type: in vivo, human; settings: 5% w/v GML in non-aqueous gel
S. pyogenes = assay: Bactericidal activity of GML versus lauric acid; assay type: cell-based; settings: 24 hours, 37° C.
Haemophilus influenzae = assay: Effect of pH on GML activity; assay type: cell-based; settings: 1 μg/mL GML
Procedure: A similar experiment was carried out to assess the effect of GML on the growth of Haemophilus influenzae at various pHs. 1 μg/mL GML had no effect on the growth of H. influenzae at a pH of 7.0 (FIG. 13).

oral aerobic bacteria = assay: Decolonization of teeth and gum lines; assay type: in vivo, human; settings: 5% GML gel on teeth and gum lines; thirty minutes after treatment
From the text: Human volunteers were swabbed with a PBS-saturated swab across the teeth and gum lines on the left side of the mouth and tested for CFU/mL of total bacteria subsequently grown on blood agar plates. The same individuals were then swabbed with GML gel by swabbing the gel across the teeth and gum lines on the right side of the mouth. Enough gel was used to coat the entire surface area of the teeth and gum lines. Thirty minutes after treatment, the participants were swabbed with PBS-saturated swabs on the right side and total CFU/mL were determined. […] Bacterial counts on both sides of the teeth and gum lines were presumed to be approximately equal, and a pre-test swab confirmed that this was the case.

[5] = tested on: Peptostreptococcus species; assay: Spectrum of antibacterial activity of GML; assay type: cell-based; settings: optimal growth conditions; 1 strain tested
H. influenzae biofilm = assay: Treatment of previously formed biofilms; assay type: cell-based; settings: 48 hour biofilm; 500 μg/mL GML for 60 minutes at 37° C.
Procedure: Supernatants were removed and bactericidal activity was determined by measuring CFU/mL (FIG. 9, left; # significant reduction in mean absorbance at 595 nm compared to no GML control, p<0.01). Wells were then washed and stained with crystal violet as described above.

Gardnerella vaginalis = assay: Spectrum of antibacterial activity of GML; assay type: cell-based; settings: optimal growth conditions; 2 strains tested
[6] = tested on: Staphylococcus aureus MNPE (methicillin sensitive) and MW2 (methicillin resistant); assay: GML in vegetable oil, growth in Todd Hewitt broth (CFU/mL); assay type: cell-based; settings: both strains; GML in olive, palm or corn oil (all 3); 18 hours, 37° C.

Question: Which results are given for Glycerol monolaurate [GML]?
Answer: GML concentration at which growth was completely or nearly completely inhibited (Streptococcus agalactiae): ≥ 20 µg/mL; Average Bactericidal Concentration of GML (Streptococcus pyogenes): 30 µg/mL; Average Bactericidal Concentration of GML (Listeria monocytogenes): 50 µg/mL; Average Bactericidal Concentration of GML (Pseudomonas aeruginosa): Not Susceptible; Average Bactericidal Concentration of GML (Bacteroides fragilis): 50 µg/mL; Average Bactericidal Concentration of GML (Escherichia coli): Not Susceptible; S. aureus counts in both nares after treatment (S. aureus; swab, three subjects, all time-points up to 24 hour): 0 CFU/mL; S. aureus counts over 3 day test period (S. aureus; one subject): 0; Average Bactericidal Concentration of GML (Mycoplasma hominis): 1 µg/mL; Average Bactericidal Concentration of GML [1]: 50 µg/mL; Average Bactericidal Concentration of GML (Streptococcus suis): 50 µg/mL; bactericidal activity on previously formed biofilm (CFU/mL) (S. aureus biofilm): killed; biofilm material attached to the wells (crystal violet staining) (S. aureus biofilm): nearly completely removed biofilm material; Average Bactericidal Concentration of GML [2]: 50 µg/mL; Average Bactericidal Concentration of GML (Shigella sonnei): Not Susceptible; GML concentration inhibiting growth (CFU/mL) (S. aureus (strain MN8)): ≥ 100 µg/mL; Average Bactericidal Concentration of GML [3]: 50 µg/mL; S. aureus CFU/mL at surgical incision sites (S. aureus strain MN8; 24 hour time-point, PBS control 8.8 log CFU/mL): no CPUs were detectable; inflammation at the surgical site (redness) (S. aureus strain MN8; 24 hours, versus PBS): less inflammation; coagulase-negative staphylococcal counts in both nares after treatment ([4]; swab, three subjects, 4 hours or more up to 24 hour): significantly (p<0.05) reduced; coagulase-negative staphylococci in right nare after 3 days ([4]; one subject, initially 560): 8 CFU/mL; coagulase-negative staphylococci in left nare after 3 days ([4]; one subject, initially 880): 0 CFU/mL; fold more bactericidal for S. pyogenes than for S. aureus (S. pyogenes): 5 fold; fold lower bactericidal concentration than lauric acid (S. pyogenes; 7% CO2, bactericidal = at least 3 log reduction): 500 fold; effect on growth (CFU/mL) (Haemophilus influenzae; pH 6.0, 4, 8, and 24 hours): completely abrogated the growth; effect on growth (CFU/mL) (Haemophilus influenzae; pH 7.0): no effect; reduction in CFUs between pretreatment and post-treatment swabs (oral aerobic bacteria): > 5 log; Average Bactericidal Concentration of GML [5]: 1 µg/mL; bactericidal activity on previously formed biofilm (CFU/mL) (H. influenzae biofilm): killed; biofilm material attached to the wells (crystal violet staining) (H. influenzae biofilm): nearly completely removed biofilm material; Average Bactericidal Concentration of GML (Gardnerella vaginalis): 10 µg/mL; GML concentration at which growth was inhibited [6]: 100 µg/mL
